Calls of active or inactive are those of the source. The rule behind the calls is not given here.
Tests used:
[1] = AUC extrapolated in Wistar Han rat at 5 mg/kg, id measured upto 24 hrs by LC-MS/MS analysis; assay type: ADME, organism-based; settings: in vivo, other
[2] = AUC(0 to infinity) in Wistar Han rat at 5 mg/kg, id measured upto 24 hrs by LC-MS/MS analysis; assay type: ADME, organism-based; parameters: dose 5 mg/kg, time <=24; settings: in vivo
[3] = target: T1, Proprotein convertase subtilisin/kexin type 9 (Homo sapiens, UniProt Q8NBP7); test: Inhibition of human PCSK9 using Alexa Fluor […] as substrate incubated for 2 hrs by FRET assay
[4] = target: T1, Proprotein convertase subtilisin/kexin type 9; test: Inhibition of human PCSK9 using Alexa Fluor […] as substrate incubated for 2 hrs by FRET ultra assay
[5] = target: T2, Solute carrier organic anion transporter family member 1B1 (Homo sapiens, UniProt Q9Y6L6); test: Inhibition of OATP1B1 (unknown origin) expressed in HEK293 cells assessed as reduction in OATP 1B1-mediated [3H]-pitavastatin uptake preincubated for 30 mins followed by [3H]-pitavastatin addition and measured after 2 mins by liquid scintillation analysis; assay type: cell-based
T2 sequence (Q9Y6L6 whole entry): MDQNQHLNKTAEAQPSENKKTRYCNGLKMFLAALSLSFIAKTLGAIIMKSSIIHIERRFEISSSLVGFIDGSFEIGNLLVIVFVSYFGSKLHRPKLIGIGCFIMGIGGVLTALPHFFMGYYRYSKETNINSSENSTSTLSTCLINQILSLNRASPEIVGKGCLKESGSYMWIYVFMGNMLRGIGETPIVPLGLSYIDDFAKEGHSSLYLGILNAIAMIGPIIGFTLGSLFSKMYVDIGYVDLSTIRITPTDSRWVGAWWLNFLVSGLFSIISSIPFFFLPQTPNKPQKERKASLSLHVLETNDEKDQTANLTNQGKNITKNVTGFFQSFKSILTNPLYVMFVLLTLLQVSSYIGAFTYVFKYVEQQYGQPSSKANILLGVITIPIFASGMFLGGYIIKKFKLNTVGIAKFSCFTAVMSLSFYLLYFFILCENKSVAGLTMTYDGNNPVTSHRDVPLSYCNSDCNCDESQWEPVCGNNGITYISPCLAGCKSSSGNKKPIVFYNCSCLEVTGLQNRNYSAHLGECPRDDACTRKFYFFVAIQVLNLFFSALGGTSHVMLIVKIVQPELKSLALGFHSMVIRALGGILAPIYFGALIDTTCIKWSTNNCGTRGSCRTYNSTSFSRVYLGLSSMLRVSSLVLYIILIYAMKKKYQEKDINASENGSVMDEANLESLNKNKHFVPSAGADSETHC

[6] = Cmax in Wistar Han rat at 5 mg/kg, id measured upto 24 hrs by LC-MS/MS analysis; assay type: ADME, organism-based; parameters: dose 5 mg/kg, time <=24; settings: in vivo
[7] = Tmax in Wistar Han rat at 5 mg/kg, id measured upto 24 hrs by LC-MS/MS analysis; assay type: ADME, organism-based; settings: in vivo
[8] = Bioavailability in Wistar Han rat at 5 mg/kg, id measured upto 24 hrs by LC-MS/MS analysis; assay type: ADME, organism-based; settings: in vivo
Mast cell = test: Induction of rat mast cells degranulation activity at 100 uM incubated for 30 mins; assay type: functional, tissue-based
[9] = target: T1, Proprotein convertase subtilisin/kexin type 9; test: Inhibition of human PCSK9 using Alexa Fluor […] as substrate incubated for 2 hrs by FRET plus assay

T1 sequence (Q8NBP7 31-152 limits assumed): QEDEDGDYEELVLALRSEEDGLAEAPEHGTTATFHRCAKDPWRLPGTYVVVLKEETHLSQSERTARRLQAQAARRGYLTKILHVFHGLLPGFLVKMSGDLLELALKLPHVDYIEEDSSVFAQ
T1 sequence (Q8NBP7 153-692 limits assumed): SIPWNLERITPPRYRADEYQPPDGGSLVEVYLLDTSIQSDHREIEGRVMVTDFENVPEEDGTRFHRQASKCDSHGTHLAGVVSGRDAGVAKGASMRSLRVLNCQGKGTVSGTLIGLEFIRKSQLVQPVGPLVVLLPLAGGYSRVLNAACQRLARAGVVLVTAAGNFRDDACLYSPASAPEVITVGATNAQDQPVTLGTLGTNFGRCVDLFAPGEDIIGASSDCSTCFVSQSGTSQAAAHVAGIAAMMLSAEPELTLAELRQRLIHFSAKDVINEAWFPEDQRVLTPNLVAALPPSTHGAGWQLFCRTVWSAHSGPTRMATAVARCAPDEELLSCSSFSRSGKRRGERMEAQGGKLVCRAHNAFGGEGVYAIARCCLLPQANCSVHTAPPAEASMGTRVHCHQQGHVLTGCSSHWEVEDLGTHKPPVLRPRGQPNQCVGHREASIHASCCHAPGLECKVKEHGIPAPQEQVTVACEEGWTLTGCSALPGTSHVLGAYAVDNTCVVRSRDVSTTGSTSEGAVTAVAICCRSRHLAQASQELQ

Row | SMILES | %AUCextra [1] [%] | AUC(0-inf) [2] [µM·h] | Ki [3] [nM] | Ki [4] [nM] | EC50 [5] [nM] | Cmax [6] [nM] | Tmax [7] [h] | bioavailability [8] [%] | Ki [9] [nM] | Activity (Mast cell)
1 | COc1ccc(C[C@@H]2NC(=O)[C@H]([C@H](C)OC)NC(=O)[C@@H]3[C@@H]4CCN3C(=O)[C@H](Cc3c[nH]c5ccc(F)cc35)NC(=O)[C@H](Cc3cccc(c3)C/C=C/CO4)NC(=O)[C@H](C)NC(=O)[C@H](CN)NC(=O)CCSCc3cccc(c3)CSCCNC(=O)[C@]3(C)CCCN3C2=O)cc1 | – | – | 0.45 | – | – | – | – | – | 0.23 | inactive
2 | COc1ccc(C[C@@H]2NC(=O)[C@H]([C@@H](C)OC)NC(=O)[C@@H]3[C@@H]4CCN3C(=O)[C@H](Cc3c[nH]c5ccc(F)cc35)NC(=O)[C@H](Cc3cccc(c3)C/C=C\CO4)NC(=O)[C@@H](CN)NC(=O)[C@H](C)NC(=O)CCSCc3cccc(c3)CSCCNC(=O)[C@]3(C)CCCN3C2=O)cc1 | – | – | 1.16 | – | – | – | – | – | 2.25 | –
3 | COc1ccc(C[C@@H]2NC(=O)[C@H]([C@@H](C)OC)NC(=O)[C@@H]3[C@@H]4CCN3C(=O)[C@H](Cc3c[nH]c5ccc(F)cc35)NC(=O)[C@H](Cc3cccc(c3)C/C=C/CO4)NC(=O)[C@@H](CN)NC(=O)[C@H](C)NC(=O)CCSCc3cccc(c3)CSCCNC(=O)[C@]3(C)CCCN3C2=O)cc1 | – | – | 0.2 | – | – | – | – | – | 0.16 | –

Second part, led by results:

Row | %AUCextra [1] [%] | AUC(0-inf) [2] [µM·h] | Ki [3] [nM] | Ki [4] [nM] | EC50 [5] [nM] | Cmax [6] [nM] | Tmax [7] [h] | bioavailability [8] [%] | Ki [9] [nM] | SMILES | Activity (Mast cell)
4 | 19.6 | 0.0683 | < 0.129 | 0.00813 | 6000 | 53.3 | 0 | 1 | – | COc1ccc(C[C@@H]2NC(=O)[C@H]([C@@H](C)O)NC(=O)[C@@H]3[C@@H]4CCN3C(=O)[C@@H]3Cc5cn(c6ccc(F)cc56)Cc5cn(nn5)-c5cc(cc(c5)CSCCC(=O)N[C@@H](CNC(=O)CCOCCOCCN)C(=O)N[C@H](C)C(=O)N[C@@H](Cc5cccc(c5)C/C=C/CO4)C(=O)N3)CSCCNC(=O)[C@]3(C)CCCN3C2=O)cc1 | inactive
5 | – | – | < 0.129 | 0.0006 | – | – | – | – | < 0.01 | COc1ccc(C[C@@H]2NC(=O)[C@H]([C@H](C)O)NC(=O)[C@@H]3[C@@H]4CCN3C(=O)[C@@H]3Cc5cn(c6ccc(F)cc56)Cc5cn(nn5)-c5cc(cc(c5)CSCCC(=O)N[C@@H](C)C(=O)N[C@@H](CNC(=O)CCOCCOCCNC(=O)CCCC[C@@H]5SC[C@H]6NC(=O)N[C@@H]56)C(=O)N[C@@H](Cc5cccc(c5)C/C=C/CO4)C(=O)N3)CSCCNC(=O)[C@]3(C)CCCN3C2=O)cc1 | –
6 | – | – | 0.43 | – | – | – | – | – | 0.25 | COc1ccc(C[C@@H]2NC(=O)[C@H]([C@@H](C)O)NC(=O)[C@@H]3[C@@H]4CCN3C(=O)[C@H](Cc3c[nH]c5ccc(F)cc35)NC(=O)[C@H](Cc3cccc(c3)C/C=C/CO4)NC(=O)[C@@H](C)NC(=O)[C@H](C)NC(=O)CCSCc3cccc(c3)CSCCNC(=O)[C@]3(C)CCCN3C2=O)cc1 | –

From ChEMBL document CHEMBL5034034 (J Med Chem, 2021)
